The source made the active and inactive calls. No cut-off for these calls is given here.
What was measured:
[1] = Inhibition of Escherichia coli thymidylate synthase using N5,N10-methylene tetrahydrofolate by chromogenic assay
Thymidylate synthase [2] = target: T1, Thymidylate synthase (Homo sapiens, UniProt P04818); experiment: Inhibition of human thymidylate synthase using N5,N10-methylene tetrahydrofolate at 50 uM by chromogenic assay
Target sequence in this assay (P04818 2-313 limits assumed): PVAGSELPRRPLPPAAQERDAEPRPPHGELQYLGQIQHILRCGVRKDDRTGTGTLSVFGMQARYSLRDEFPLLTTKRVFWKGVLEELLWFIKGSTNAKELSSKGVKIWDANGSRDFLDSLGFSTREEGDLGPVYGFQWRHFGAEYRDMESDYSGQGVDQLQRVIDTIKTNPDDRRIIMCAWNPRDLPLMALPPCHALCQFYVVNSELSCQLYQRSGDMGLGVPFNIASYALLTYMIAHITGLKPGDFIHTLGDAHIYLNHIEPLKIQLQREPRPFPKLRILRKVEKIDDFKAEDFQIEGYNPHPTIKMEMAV

[3] = target: T2, Thymidylate synthase (Enterococcus faecalis (strain ATCC 700802 / V583)) (UniProt Q834R3); experiment: Inhibition of Enterococcus faecalis thymidylate synthase using N5,N10-methylene tetrahydrofolate at 50 uM by chromogenic assay
T2 sequence (whole entry): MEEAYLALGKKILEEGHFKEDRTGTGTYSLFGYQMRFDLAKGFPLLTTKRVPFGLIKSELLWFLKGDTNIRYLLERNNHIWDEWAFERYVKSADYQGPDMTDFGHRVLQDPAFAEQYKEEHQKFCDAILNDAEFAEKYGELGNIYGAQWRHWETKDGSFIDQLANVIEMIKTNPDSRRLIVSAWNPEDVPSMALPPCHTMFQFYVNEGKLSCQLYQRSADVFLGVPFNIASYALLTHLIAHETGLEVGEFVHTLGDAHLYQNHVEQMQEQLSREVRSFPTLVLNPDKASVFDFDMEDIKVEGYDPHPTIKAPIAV

Thymidylate synthase [4] = target: T3, Thymidylate synthase (Enterococcus faecalis (strain ATCC 700802 / V583), UniProt Q834R3); experiment: Inhibition of Enterococcus faecalis thymidylate synthase using N5,N10-methylene tetrahydrofolate by chromogenic assay
T3 sequence (Q834R3 whole entry): T2 sequence (whole entry)

Thymidylate synthase [5] = target: T4, Thymidylate synthase (Lactobacillus casei, UniProt P00469); experiment: Inhibition of Lactobacillus casei thymidylate synthase using N5,N10-methylene tetrahydrofolate by chromogenic assay; design: species or system Lacticaseibacillus casei
T4 sequence (P00469 whole entry): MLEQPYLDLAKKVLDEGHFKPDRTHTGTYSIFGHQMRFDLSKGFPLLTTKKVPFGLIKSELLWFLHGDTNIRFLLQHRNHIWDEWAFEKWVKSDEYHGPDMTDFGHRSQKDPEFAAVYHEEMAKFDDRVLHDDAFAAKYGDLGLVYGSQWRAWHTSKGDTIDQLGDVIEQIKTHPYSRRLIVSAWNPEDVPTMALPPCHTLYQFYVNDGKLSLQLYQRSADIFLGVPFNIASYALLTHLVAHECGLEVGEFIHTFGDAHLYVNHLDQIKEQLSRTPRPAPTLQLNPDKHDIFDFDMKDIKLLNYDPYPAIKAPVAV

[6] = target: T5, Thymidylate synthase (Lactobacillus casei) (UniProt P00469); experiment: Inhibition of Lactobacillus casei thymidylate synthase using N5,N10-methylene tetrahydrofolate at 50 uM by chromogenic assay; settings: Lacticaseibacillus casei
T5 sequence (whole entry): T4 sequence (P00469 whole entry)

Thymidylate synthase [7] = target: T1, Thymidylate synthase
Target sequence in this assay (P04818 whole entry): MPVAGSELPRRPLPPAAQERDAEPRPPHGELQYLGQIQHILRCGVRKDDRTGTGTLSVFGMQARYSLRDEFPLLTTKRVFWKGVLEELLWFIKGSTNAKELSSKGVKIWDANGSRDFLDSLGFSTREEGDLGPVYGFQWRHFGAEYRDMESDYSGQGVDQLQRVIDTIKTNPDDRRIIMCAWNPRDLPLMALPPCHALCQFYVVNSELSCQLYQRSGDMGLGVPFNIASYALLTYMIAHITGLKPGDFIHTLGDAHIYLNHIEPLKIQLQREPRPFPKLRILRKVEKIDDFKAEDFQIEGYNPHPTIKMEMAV
Description: Inhibition of human thymidylate synthase using N5,N10-methylene tetrahydrofolate by chromogenic assay

SMILES	Ki [1] [µM]	inhibition (Thymidylate synthase [2])	inhibition [3]	Ki (Thymidylate synthase [4]) [µM]	Ki (Thymidylate synthase [5]) [µM]	inhibition [6]	Ki (Thymidylate synthase [7]) [µM]
CN1C(=O)c2cccc(CNCCc3cccs3)c2C1=O	61	inactive	inactive				
Cc1cccc2c1C(=O)N(c1cccc(O)c1)C2=O		inactive		61	93		
Cc1cccc2c1C(=O)OC2=O	49	inactive	inactive			inactive	
Cc1cccc2c1C(=O)N(CCc1cccs1)C2=O		inactive	inactive		44		
CN1C(=O)c2cccc(CNc3ccc(C(=O)c4ccccc4)cc3)c2C1=O	82	inactive	inactive		14		
Cc1cccc2c1C(=O)N(c1ccc(C(=O)NCC(=O)O)cc1)C2=O	42			11	3		
Cc1cccc2c1C(=O)N(c1ccc(-n3ccnc3)cc1)C2=O				33	34		206
CCOC(=O)c1ccc(NCc2cccc3c2C(=O)N(C)C3=O)cc1		inactive		109	56		
CN1C(=O)c2cccc(CNc3ccc(S(=O)(=O)O)cc3)c2C1=O	42		inactive		33		
Cc1cccc2c1C(=O)N(c1cc(C(=O)O)cc(C(=O)O)c1)C2=O		inactive	inactive		20		
COCCCNCc1cccc2c1C(=O)N(C)C2=O				183	41		
CN1C(=O)c2cccc(CNc3ccc([N+](=O)[O-])c4ccccc34)c2C1=O	92	inactive	inactive		10		
CN1C(=O)c2cccc(CNCCP(=O)(O)O)c2C1=O	14	inactive	inactive				
Cc1cccc2c1C(=O)N(c1cccc3[nH]ccc13)C2=O		inactive		26	25		
CN1C(=O)c2cccc(CNc3ccc(C(=O)O)cn3)c2C1=O		inactive	inactive		27		
O=C1OC(c2ccc(O)c(Cl)c2)(c2ccc(O)c(Cl)c2)c2cccc3cccc1c23	0.6						
Cc1cccc2c1C(=O)N(c1ccnc(Cl)c1)C2=O	111	inactive		7	23		
Cc1cccc2c1C(=O)N(c1cc(-c3ccccc3)ccc1O)C2=O	3			2	3		
CC(=O)c1ccc(N2C(=O)c3cccc(C)c3C2=O)cc1	41	inactive	inactive		6		
Cc1cccc2c1C(=O)N(c1ccc(C(=N)N)cc1)C2=O		inactive	inactive		9		
Cc1cc(N2C(=O)c3cccc(C)c3C2=O)ccc1N1C(=O)c2ccc(Cl)cc2C1=O	33	inactive	inactive		36		
Cc1cccc2c1C(=O)N(c1ccc(C#N)cc1)C2=O	31	inactive		8	22		
CN1C(=O)c2cccc(CNc3cccc(S(N)(=O)=O)c3)c2C1=O		inactive	inactive		38		
CN1C(=O)c2cccc(CBr)c2C1=O		inactive	inactive		95		
Cc1cccc2c1C(=O)N(c1ccc(C(=O)O)c(O)c1)C2=O	36		inactive		14		
CN1C(=O)c2cccc(CNc3ccc(C#N)cc3)c2C1=O		inactive	inactive		51		
Cc1cccc2c1C(=O)N(c1ccc(C(F)(F)F)cc1)C2=O	18	inactive		60	14		
Cc1cccc2c1C(=O)N(c1cccc(C(=O)O)c1)C2=O			inactive		69		
Cc1cccc2c1C(=O)N(c1nccs1)C2=O		inactive		11	3		

Reference: ChEMBL document CHEMBL1811787, “Identification of the binding modes of N-phenylphthalimides inhibiting bacterial thymidylate synthase through X-ray crystallography screening” (J Med Chem, 2011)
